Source: ChEMBL document CHEMBL1697781, “Assessment of the health effects of chemicals in humans: II. Construction of an adverse effects database for QSAR modeling” (Curr Drug Discov Technol, 2004)

Tests used:
Details in all cases: human; call rule not given here
[1] = tested on: Hepatotoxicity; assay: FDA HLAED, liver enzyme composite activity
[2] = tested on: Hepatotoxicity; assay: FDA HLAED, alkaline phosphatase increase
[3] = tested on: Hepatotoxicity; assay: FDA HLAED, serum glutamic oxaloacetic transaminase (SGOT) increase
[4] = tested on: Hepatotoxicity; assay: FDA HLAED, serum glutamic pyruvic transaminase (SGPT) increase
[5] = tested on: Hepatotoxicity; assay: FDA HLAED, lactate dehydrogenase (LDH) increase
[6] = tested on: Hepatotoxicity; assay: FDA HLAED, gamma-glutamyl transferase (GGT) increase
Wherever GGT Increase - Index Value is given: reference of the scale not given here.
Wherever LDH Increase - Index Value is given: reference of the scale not given here.

Row | SMILES | Composite Activity - Active [1] | Composite Activity - Marginal [1] | Composite Activity - Score [1] | Alkaline Phosphatase Increase - Activity Score [2] | Alkaline Phosphatase Increase - Index Value [2] | Alkaline Phosphatase Increase - Number of Reports [2] | SGOT Increase - Activity Score [3] | SGOT Increase - Index Value [3] | SGOT Increase - Number of Reports [3] | SGPT Increase - Activity Score [4] | SGPT Increase - Index Value [4] | SGPT Increase - Number of Reports [4] | LDH Increase - Activity Score [5] | LDH Increase - Index Value [5] | LDH Increase - Number of Reports [5] | GGT Increase - Activity Score [6] | GGT Increase - Index Value [6] | GGT Increase - Number of Reports [6] | also measured
1 | CCN[C@@H](C)Cc1cccc(C(F)(F)F)c1 [DEXFENFLURAMINE] | 0 | 0 | Inactive | Inactive | 0.2 | < 4 | Inactive | 1 | >= 4 | Inactive | 0.6 | < 4 | Inactive | 0.4 | < 4 | Inactive | 0.6 | < 4 | –
2 | C[C@@H](CN1CC(=O)NC(=O)C1)N1CC(=O)NC(=O)C1 [DEXRAZOXANE] | 0 | 0 | Inactive | Inactive | 0 | < 4 | Inactive | 0 | < 4 | Inactive | 0 | < 4 | Inactive | 0 | < 4 | Inactive | 0 | < 4 | –
3 | C[C@@]12CCCCC[C@@H](Cc3ccc(O)cc31)[C@@H]2N [DEZOCINE] | 0 | 0 | Inactive | Inactive | 0 | < 4 | Inactive | 0 | < 4 | Inactive | 0 | < 4 | Inactive | 0 | < 4 | Inactive | 0 | < 4 | –
4 | O=C(O)Cc1ccccc1Nc1c(Cl)cccc1Cl [DICLOFENAC] | – | – | – | Active | 9.2 | >= 4 | Active | 11.4 | >= 4 | Active | 11.1 | >= 4 | Inactive | 2 | >= 4 | Marginally Active | 3.8 | >= 4 | Composite Activity - Active ([1]; Liver): 3; Composite Activity - Marginal ([1]; Liver): 1; Composite Activity - Score ([1]; Liver): Active
5 | O=c1[nH]cnc2c1ncn2[C@H]1CC[C@@H](CO)O1 [DIDANOSINE] | 3 | 1 | Active | Active | 14.5 | >= 4 | Active | 13.7 | >= 4 | Active | 12.9 | >= 4 | Marginally Active | 3 | >= 4 | Inactive | 1.5 | < 4 | –
6 | O=C(O)c1cc(-c2ccc(F)cc2F)ccc1O [DIFLUNISAL] | – | – | – | Inactive | 0 | < 4 | Inactive | 0.3 | < 4 | Inactive | 0.5 | < 4 | Inactive | 0 | < 4 | Inactive | 0 | < 4 | Composite Activity - Active ([1]; Liver): 0; Composite Activity - Marginal ([1]; Liver): 0; Composite Activity - Score ([1]; Liver): Inactive
7 | COc1ccc([C@@H]2Sc3ccccc3N(CCN(C)C)C(=O)[C@@H]2OC(C)=O)cc1 [DILTIAZEM] | 0 | 0 | Inactive | Inactive | 0.1 | < 4 | Inactive | 0.3 | >= 4 | Inactive | 0.1 | < 4 | Inactive | 0.1 | < 4 | Inactive | 0 | < 4 | –
8 | CNCC(O)c1ccc(OC(=O)C(C)(C)C)c(OC(=O)C(C)(C)C)c1 (configuration not stated) [DIPIVEFRIN] | 0 | 0 | Inactive | Inactive | 0 | < 4 | Inactive | 0 | < 4 | Inactive | 0 | < 4 | Inactive | 0 | < 4 | Inactive | 0 | < 4 | –
9 | CC[C@H]1OC(=O)[C@H](C)[C@@H](O[C@H]2C[C@@](C)(OC)[C@@H](O)[C@H](C)O2)[C@H](C)[C@@H](O[C@@H]2O[C@H](C)C[C@H](N(C)C)[C@H]2O)[C@](C)(O)C[C@@H](C)[C@@H]2N[C@@H](COCCOC)O[C@H]([C@H]2C)[C@]1(C)O [DIRITHROMYCIN] | 0 | 0 | Inactive | Inactive | 0 | < 4 | Inactive | 5.4 | < 4 | Inactive | 5.4 | < 4 | Inactive | 0 | < 4 | Inactive | 2.7 | < 4 | –
